Experimental data from patent US10039749B1, “Substituted pyrazole derivatives” (KING SAUD UNIVERSITY, priority 2018, dated 2018).
Where two headings read alike, the source gives them in different places. Marks after values point to notes of the source that are not given here.

Assays:
[1] = tested on: Breast subpanel tumor cell lines; test: In vitro anticancer screening, five concentration levels, breast subpanel; format: cell-based, human
Experimental: (§1) Anticancer evaluation of the newly synthesized compound was performed by a screening in vitro with 60 human cell lines for primary anticancer screening, representing leukemia, melanoma and cancers of the lung, colon, brain, ovary, breast, prostate and kidney. The screening was a two-stage process, beginning with the evaluation of all compounds against the 60 cell lines at a single-dose of 10 μM. […] Therefore this compound passed on to further evaluation at five concentration levels ranging from 0.01 μM to 100 μM.

[2] = tested on: DENA-induced liver cancer in rats; test: Histopathological examination of rat liver sections; format: in vivo; details: H&E staining
From the text: For the histopathological examination, the animals were euthanized by decapitation and their livers were rapidly excised, weighed, and washed with saline. Portions of the livers were fixed in 10% formalin in saline, embedded in paraffin wax, serially sectioned, and stained. A standard method of hematoxylin and eosin (H&E) staining was also used.

[3] = tested on: Renal subpanel tumor cell lines; test: In vitro anticancer screening, five concentration levels, renal subpanel; format: cell-based, human
Experimental: as §1

[4] = tested on: Lung subpanel tumor cell lines; test: In vitro anticancer screening, five concentration levels, lung subpanel; format: cell-based, human
Experimental: as §1

[5] = tested on: Ovarian subpanel tumor cell lines; test: In vitro anticancer screening, five concentration levels, ovarian subpanel; format: cell-based, human
Experimental: as §1

[6] = tested on: Colon subpanel tumor cell lines; test: In vitro anticancer screening, five concentration levels, colon subpanel; format: cell-based, human
Experimental: as §1

[7] = tested on: Prostate subpanel tumor cell lines; test: In vitro anticancer screening, five concentration levels, prostate subpanel; format: cell-based, human
Experimental: as §1

60 human cell lines = test: In vitro anticancer screening, full panel; format: cell-based; details: for GI50: Homo sapiens, read-out: GI50 MG-MID (full panel mean-graph midpoint)
Experimental: as §1

[8] = tested on: Melanoma subpanel tumor cell lines; test: In vitro anticancer screening, five concentration levels, melanoma subpanel; format: cell-based, human
Experimental: as §1

[9] = tested on: Leukemia subpanel tumor cell lines; test: In vitro anticancer screening, five concentration levels, leukemia subpanel; format: cell-based, human
Experimental: as §1

[10] = tested on: CNS subpanel tumor cell lines; test: In vitro anticancer screening, five concentration levels, CNS subpanel; format: cell-based, human
Experimental: as §1

[11] = tested on: DENA-induced liver cancer in rats; test: Liver function in DENA-induced liver cancer in rats; format: in vivo, rat; details: for ALP / ALT / AST / Bili (total bilirubin): serum, mean ± SE
Experimental: (§2) Adult male Sprague-Dawley rats (180±20 g, body weight), were purchased from the animal house of the National Research Centre, Egypt. They were maintained for 1 week under environmentally controlled conditions (constant temperature, 25-27° C., with 12-hour light/dark cycles) for 1 week prior to starting the experiments. The […] were housed with 10 animals per cage, and were provided with tap water and commercial diets.
Diethylnitrosamine (DENA) and carbon tetrachloride (CCl4) were purchased from Sigma-Aldrich Chemical Corp., (St. Louis, Mo., USA). The DENA was dissolved in normal saline and injected as a single dose (200 mg/kg, intraperitoneally, i.p.) to initiate hepatic carcinogenesis. The CCl4 was administered as a single dose (2 ml/kg) by gavage as a 1:1 dilution in corn oil to stimulate liver cell proliferation and regeneration. The aspartate transaminase (AST), alanine transaminase (ALT), alkaline phosphatase (ALP), and total bilirubin (Bili) kits were obtained from BioMérieux (France).
Adult male Sprague-Dawley rats were divided into groups of eight animals each. Group 1 rats (untreated control) were fed a standard diet and given water throughout the experiment. Group 2 rats (treated with DENA) were injected with a single dose of DENA (200 mg/kg, i.p.), and 2 weeks later received a single dose of CCl4 (2 ml/kg) by gavage as 1:1 dilution in corn oil. Group 3 rats (treated with DENA and target compound) consisted of rats that were treated as the rats in Group 2, but also were treated with target compound administered IV at a dose that was 1/10 the LD50, for 10 consecutive days.
At the end of the treatment protocol on day 30 after the last injection, the animals were anesthetized with ether, and blood samples were drawn from the orbital venous plexus. The serum was separated by centrifugation for 5 minutes at 1500 g, and stored at −20° C. until analyzed. This serum was used to determine the liver function by assaying the ALT, AST, and ALP activities and total bilirubin spectrophotometrically according to the manufacturer's instructions using reagent kits obtained from […]. Liver function was measured, comparing results for control rats with results in DENA-treated and in target compound-treated rats. The results were reported as mean±standard error of the mean (SE). Statistical significance was analyzed using a one-way analysis of variance (ANOVA) followed by the Student's t-test, while the differences were considered to be significant at p<0.05.

Sprague-Dawley rats = test: In vivo acute toxicity (LD50); parameters: species or system rat
Experimental: as §2
Acute toxicity of the target compound was determined in vivo according to previously reported methods in the literature. Briefly, animals were divided into groups of 10 rats each, and administered single intravenous (IV) doses, graded ranging from 0 to 1200 μg/kg, of the synthesized compound. Control animals received vehicle alone (dimethyl sulfoxide, DMSO).
The mortality of the animals was monitored for up to 1 month posttreatment. […] Acute toxicity was considered by the in vivo assay.

[12] = DENA/CCl4 rats treated IV at 1/10 LD50 for 10 days, day 30 after last injection
[13] = rats given DENA 200 mg/kg i.p. then CCl4, no target compound

Compound: COc1ccc(-c2nn(-c3cccc(Cl)c3)cc2/C=C2\C(=N)N(c3ccccc3)N=C2N)cc1 [Compound 2, (4Z)-4-((1-(3-Chlorophenyl)-3-(4-methoxyphenyl)-1H-pyrazol-4-yl)methylene)-4,5-dihydro-5-imino-1-phenyl-1H-pyrazol-3-amine]
- Selectivity ratio, Breast [1]: 1.68
- GI50 ([1]; Homo sapiens, read-out: Median growth inhibitory concentration GI50, Breast): 2130 nM
- Liver histology (H&E) of DENA-rats treated with target compound ([2]; listed as target): improvement in the hepatic pattern associated with normal hepatic architecture
- Liver histology (H&E) of DENA-rats treated with target compound ([2]; listed as target compound): normal hepatic architecture
- Selectivity ratio, Renal [3]: 0.65
- GI50 ([3]; Homo sapiens, read-out: Median growth inhibitory concentration GI50, Renal): 5550 nM
- Selectivity ratio, Lung [4]: 0.49
- GI50 ([4]; Homo sapiens, read-out: Median growth inhibitory concentration GI50, Lung): 7390 nM
- Selectivity ratio, Ovarian [5]: 0.59
- GI50 ([5]; Homo sapiens, read-out: Median growth inhibitory concentration GI50, Ovarian): 6110 nM
- Selectivity ratio, Colon [6]: 2.86
- GI50 ([6]; Homo sapiens, read-out: Median growth inhibitory concentration GI50, Colon): 1250 nM
- Selectivity ratio, Prostate [7]: 5.19
- GI50 ([7]; Homo sapiens, read-out: Median growth inhibitory concentration GI50, Prostate): 690 nM
- GI50 (60 human cell lines; 60 cell): 3590 nM
- Growth inhibition, one dose mean graph (60 human cell lines; single-dose of 10 μM, 60 cell lines): significant growth inhibition
- Selectivity ratio, Melanoma [8]: 1.27
- GI50 ([8]; Homo sapiens, read-out: Median growth inhibitory concentration GI50, Melanoma): 2830 nM
- Selectivity ratio, Leukemia [9]: 5.86
- GI50 ([9]; Homo sapiens, read-out: Median growth inhibitory concentration GI50, Leukemia): 610 nM
- Selectivity ratio, CNS [10]: 0.63
- GI50 ([10]; Homo sapiens, read-out: Median growth inhibitory concentration GI50, CNS): 5700 nM
- AST, ALT and ALP activities and total bilirubin level compared to DENA-treated rats (in words) ([11]; dose of 1/10 of the LD50): substantial normalization
- ALP [11, 12]: 124.00 ± 12.00^b U/L
- ALT [11, 12]: 49.00 ± 4.6^b U/L
- AST [11, 12]: 70.00 ± 7.2^b U/L
- Bili (total bilirubin) [11, 12]: 1.63 ± 0.16^b mg/dl
- Median lethal dose (LD50) (Sprague-Dawley rats; single IV dose, mortality monitored up to 1 month): 195 μg/kg body weight
- Acute toxicity (in words) (Sprague-Dawley rats; single IV doses 0 to 1200 μg/kg): no marked acute toxicity

Compound: CCN(CC)N=O [DENA, Diethylnitrosamine, reference compound]
- ALP [11, 13]: 215.00 ± 15.7^a U/L
- ALT [11, 13]: 95.00 ± 7.0^a U/L
- AST [11, 13]: 110.00 ± 7.8^a U/L
- Bili (total bilirubin) [11, 13]: 2.90 ± 0.20^a mg/dl

Compound: CNC(=O)c1cc(Oc2ccc(NC(=O)Nc3ccc(Cl)c(C(F)(F)F)c3)cc2)ccn1 [Sorafenib, sorafenib, reference compound]
- GI50 (60 human cell lines; full panel, 60 cell lines): 1900 nM
